# Reference: PubChem BioAssay (NCI)
# Where “and” joins values, the source holds several entries; their conditions need not be identical. Equal entries are not always repeated.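 Results reflect a 48-hour exposure of cells in 96-well plates to compound at five concentrations. GI50 = concentration required for 50% inhibition of growth. TGI: total growth inhibition.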
# Tested on: SW-620 colon
# Assay: NCI tumour cell line growth inhibition, 48 h
SMILES,TGI [µM],GI50 [µM]
Cc1nc(N)sc1N=Nc1ccccc1Br,> 100,
NS(=O)(=O)c1ccc(N=Nc2c(O)c(C(=O)O)cc3ccccc23)cc1,> 100,
Cc1c(N(C)C)ccc2c(=O)c3cccc(CC(=O)O)c3oc12,> 53.5,
CC(NCCC(c1ccccc1)c1ccccc1)c1ccccc1 (stereo not drawn),3.42,1.71
C/C(N=NC(=S)N1CC2CCC(CC2)C1)=C1\C=CC=CN1O,> 100,
O=C(Nc1ccc(Br)cc1F)c1cc(Cl)ccc1O,> 39.2,1.05
NC(N)=N/N=C/c1c(Cl)cccc1Cl,30.6,15.8
S=c1[nH]c(=S)c2cc3ccccc3nc2[nH]1,> 100,26.8
O=C(Nc1cccc(C(F)(F)F)c1)c1ccc(NC2=C(Cl)C(=O)N(Cc3ccc(Cl)cc3Cl)C2=O)cc1,6.05,2.12
CCC[CH2][Sn]([CH2]CCC)([O]C(=O)c1ccc(OC)c(OC)c1OC)[O][Sn]([CH2]CCC)([CH2]CCC)[O]C(=O)c1ccc(OC)c(OC)c1OC,0.271,0.0889

# Tested on: SNB-75 CNS
# Assay: NCI tumour cell line growth inhibition, 48 h
SMILES,GI50 [µM],TGI
N#Cc1nn(-c2cc(=O)[nH]c3ccc(Cl)cc23)c(N)c1C#N,> 100,> 100 µM
NNC(=O)CNc1cccc(Br)c1,,> 100 µM
NC(N)=NCCCC(=O)O,,> 100 µM
CCN1CCN(c2cc(C)c3cc(NC(=O)c4ccc(OC)c(OC)c4)ccc3n2)CC1,5.54,> 61.3 µM
COC(=O)c1c2c(c(C)[n+]([O-])c1C)C(=O)C=C(NCc1ccc(F)cc1)C2=O,1.65,3.03 µM
CCCC(=O)Nc1cn(COC)c(C(=O)N2C[C@@H]3C[C@]34C2=CC(=O)c2[nH]cc(C)c24)n1,14.3,23.1 µM and 28.6 µM
CNCCOC(=O)/C=C1\CC[C@H]2[C@@H]([C@@H](O)C(=O)[C@@H]3[C@]2(C)CC[C@H](O)[C@]3(C)C(=O)OC)[C@H]1C,0.396,1.74 µM
Cc1nnc(Nc2ccc(NC(=O)Nc3ccc(Cl)cc3)cc2)c2ccccc12,1.91,5.49 µM
CC(=O)ON1CCCC(P(=O)(OCCSC(=O)C(C)(C)C)OCCSC(=O)C(C)(C)C)C1=O (stereo not drawn),1.4,23.3 µM
COC(=O)[C@]12CC[C@@H](C)[C@H](C)[C@@H]1C1=CC[C@@H]3[C@@]4(C)C[C@@H](O)[C@H](O)[C@@](C)(CO)C4=CC[C@@]3(C)[C@]1(C)CC2,14.3,28 µM
Cc1nc(N)sc1N=Nc1ccccc1Br,,37.5 µM
NS(=O)(=O)c1ccc(N=Nc2c(O)c(C(=O)O)cc3ccccc23)cc1,,> 100 µM
Cc1c(N(C)C)ccc2c(=O)c3cccc(CC(=O)O)c3oc12,,> 100 µM
CC(NCCC(c1ccccc1)c1ccccc1)c1ccccc1 (stereo not drawn),2.79,10.9 µM
C/C(N=NC(=S)N1CC2CCC(CC2)C1)=C1\C=CC=CN1O,,85.9 µM
O=C(Nc1ccc(Br)cc1F)c1cc(Cl)ccc1O,0.202,2.4 µM
NC(N)=N/N=C/c1c(Cl)cccc1Cl,16.7,54.1 µM
S=c1[nH]c(=S)c2cc3ccccc3nc2[nH]1,> 100,> 100 µM
O=C(Nc1cccc(C(F)(F)F)c1)c1ccc(NC2=C(Cl)C(=O)N(Cc3ccc(Cl)cc3Cl)C2=O)cc1,14.6,33.3 µM
CCC[CH2][Sn]([CH2]CCC)([O]C(=O)c1ccc(OC)c(OC)c1OC)[O][Sn]([CH2]CCC)([CH2]CCC)[O]C(=O)c1ccc(OC)c(OC)c1OC,0.177,0.744 µM

# Tested on: HCT-15 colon
# Assay: NCI tumour cell line growth inhibition, 48 h
SMILES,GI50 [µM],TGI
N#Cc1nn(-c2cc(=O)[nH]c3ccc(Cl)cc23)c(N)c1C#N,> 100,> 100 µM
NNC(=O)CNc1cccc(Br)c1,,> 100 µM
NC(N)=NCCCC(=O)O,,> 100 µM
CCN1CCN(c2cc(C)c3cc(NC(=O)c4ccc(OC)c(OC)c4)ccc3n2)CC1,3.02,> 100 µM
COC(=O)c1c2c(c(C)[n+]([O-])c1C)C(=O)C=C(NCc1ccc(F)cc1)C2=O,0.341,1.86 µM
CCCC(=O)Nc1cn(COC)c(C(=O)N2C[C@@H]3C[C@]34C2=CC(=O)c2[nH]cc(C)c24)n1,,50 µM and 38.9 µM
CNCCOC(=O)/C=C1\CC[C@H]2[C@@H]([C@@H](O)C(=O)[C@@H]3[C@]2(C)CC[C@H](O)[C@]3(C)C(=O)OC)[C@H]1C,0.608,2.55 µM
Cc1nnc(Nc2ccc(NC(=O)Nc3ccc(Cl)cc3)cc2)c2ccccc12,1.91,4.53 µM
CC(=O)ON1CCCC(P(=O)(OCCSC(=O)C(C)(C)C)OCCSC(=O)C(C)(C)C)C1=O (stereo not drawn),0.973,76.1 µM
COC(=O)[C@]12CC[C@@H](C)[C@H](C)[C@@H]1C1=CC[C@@H]3[C@@]4(C)C[C@@H](O)[C@H](O)[C@@](C)(CO)C4=CC[C@@]3(C)[C@]1(C)CC2,15.1,31 µM
Cc1nc(N)sc1N=Nc1ccccc1Br,,69.8 µM
NS(=O)(=O)c1ccc(N=Nc2c(O)c(C(=O)O)cc3ccccc23)cc1,,> 100 µM
Cc1c(N(C)C)ccc2c(=O)c3cccc(CC(=O)O)c3oc12,,> 100 µM
CC(NCCC(c1ccccc1)c1ccccc1)c1ccccc1 (stereo not drawn),2.57,7.83 µM
C/C(N=NC(=S)N1CC2CCC(CC2)C1)=C1\C=CC=CN1O,,> 100 µM
O=C(Nc1ccc(Br)cc1F)c1cc(Cl)ccc1O,0.972,10.5 µM
NC(N)=N/N=C/c1c(Cl)cccc1Cl,26.1,> 100 µM
S=c1[nH]c(=S)c2cc3ccccc3nc2[nH]1,> 100,> 100 µM
O=C(Nc1cccc(C(F)(F)F)c1)c1ccc(NC2=C(Cl)C(=O)N(Cc3ccc(Cl)cc3Cl)C2=O)cc1,2.31,5.66 µM
CCC[CH2][Sn]([CH2]CCC)([O]C(=O)c1ccc(OC)c(OC)c1OC)[O][Sn]([CH2]CCC)([CH2]CCC)[O]C(=O)c1ccc(OC)c(OC)c1OC,0.175,0.526 µM
